From US11401278B2, “Macrocyclic indole derivatives” (The Broad Institute, Inc., priority 2017, dated 2022)
Structures can show the parent of a compound that is named as a salt.

Legend:
BCL-2 = BCL-2 (Homo sapiens (Human), UniProt P10415); assay: Protein-protein interaction assay BCL-2/Bad BH3 peptide (BCL-2 assay, TR-FRET); type: binding; conditions: His-BCL-2 / Bad BH3 peptide, median
Method in brief: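 His-BCL-2 (1-211, E. coli) at 1 nM preincubated 10 min at 22 °C with compound (11 concentrations, 0.1 nM-20 μM, duplicates), then 1 nM biotinylated Bad BH3 peptide added. After 1 h at 22 °C plus overnight at 4 °C, TR-FRET 665/620 ratio normalised to DMSO and no-BCL-2 controls, IC50 from 4-parameter fit.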

SUDHL10 [1] = assay: Induction of caspase-3/7 activity (Assay 4), SUDHL10; type: cell-based; conditions: caspase-3/7 induction, 3 hours, median
Method in brief: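 Caspase-3/7 activity measured by Caspase-Glo 3/7 luminescence in DLBCL cells after 3 h compound treatment at 37 °C. Medium-only background subtracted. EC50 fitted with C0 fixed at 1 and top set to the reference compound's plateau/max induction.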

SUDHL5 [2] = assay: Antiproliferation assay (Assay 7), SUDHL5; type: cell-based; conditions: CellTiter-Glo, 72 hours, median, read-out: Antiproli SUDHL5 [M] (median) IC50
Method in brief: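 Luminescent ATP-based viability (CellTiter-Glo) measured after 72 hours of compound treatment at 37° C, alongside a time-zero plate read on the day of plating.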

SUDHL5 [3] = assay: Induction of cytotoxicity (Assay 6), SUDHL5; conditions: read-out: Cytotox SUDHL5 [M] (median) IC50, CellTiter-Glo, 5 hours, SUDHL5
SUDHL10 [4] = assay: Induction of cytotoxicity (Assay 6), SUDHL10; conditions: read-out: Cytotox SUDHL10 [M] (median) IC50, CellTiter-Glo, 5 hours, SUDHL10

BCL-2, sequence (P10415 other isoform, or with tags, fused parts or gaps): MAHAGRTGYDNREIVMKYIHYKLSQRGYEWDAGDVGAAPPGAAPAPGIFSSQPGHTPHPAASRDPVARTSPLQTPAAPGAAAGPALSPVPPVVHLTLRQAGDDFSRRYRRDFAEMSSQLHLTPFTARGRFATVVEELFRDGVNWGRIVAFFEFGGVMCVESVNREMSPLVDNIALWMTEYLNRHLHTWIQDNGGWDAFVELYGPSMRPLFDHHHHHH

SMILES | IC50 (BCL-2) | EC50 (SUDHL10 [1]) | IC50 (SUDHL5 [2]) | IC50 (SUDHL5 [3]) | IC50 (SUDHL10 [4])
CCc1c2c(nn1C)CN(C)S(=O)(=O)CCCn1c(C(=O)O)c(CCCOc3cccc4cc(F)ccc34)c3ccc(Cl)c-2c31 (single isomer, unassigned; enantiomer 1) [Example 36, (+)-4-chloro-3-ethyl-7-{3-[(6-fluoronaphthalen-1-yl)oxy]propyl}-2,14-dimethyl-13,13-dioxo-10,11,12,13,14,15-hexahydro-2H-13lambda^6-pyrazolo[3′,4′:4,5][1,2,8]thiadiazacycloundecino-[6,7,8-hi]indole-8-carboxylic acid (Enantiomer 1)] | 18 µM | 0.2 µM | 1.4e-07 M | 1.6e-07 M | 2.4e-07 M
Cc1c2c(nn1C)CN(C1CC1)S(=O)(=O)CCCn1c(C(=O)O)c(CCCOc3cccc4cc(F)ccc34)c3ccc(Cl)c-2c31 (single isomer, unassigned; enantiomer 1) [Example 42, (−)-4-chloro-14-cyclopropyl-7-{3-[(6-fluoro-1-naphthyl)oxy]propyl}-2,3-dimethyl-11,12,14,15-tetrahydro-2H,10H-pyrazolo[3′,4′:4,5][1,2,8]thiadiazacycloundecino[6,7,8-hi]indole-8-carboxylic acid 13,13-dioxide N-diethylamine salt (Enantiomer 1)] | 12 µM | 0.29 µM | 2.7e-07 M | 3e-07 M | 3.5e-07 M
Cc1c2c(nn1C)CN(CCN1CCOCC1)S(=O)(=O)CCCn1c(C(=O)O)c(CCCOc3cccc4ccccc34)c3cccc-2c31 (single isomer, unassigned; enantiomer 2) [Example 3, 2,3-Dimethyl-14-[2-(morpholin-4-yl)ethyl]-7-{3-[(naphthalen-1-yl)oxy]propyl}-13,13-dioxo-10,11,12,13,14,15-hexahydro-2H-13λ^6-pyrazolo[3′,4′:4,5][1,2,8]thiadiazacycloundecino-[6,7,8-hi]indole-8-carboxylic acid-N-ethylethanamine salt (Enantiomer 2)] | > 20 µM | > 33 µM | 1.5e-05 M | > 3.3e-05 M | > 3.3e-05 M
CCc1c2c(nn1C)CN(C)S(=O)(=O)CCCn1c(C(=O)O)c(CCCOc3cccc4cc(F)ccc34)c3ccc(F)c-2c31 (single isomer, unassigned; enantiomer 2) [Example 9, (−)-3-Ethyl-4-fluoro-7-{3-[(6-fluoronaphthalen-1-yl)oxy]propyl}-2,14-dimethyl-13,13-dioxo-10,11,12,13,14,15-hexahydro-2H-13λ^6-pyrazolo[3′,4′:4,5][1,2,8]thiadiazacycloundecino-[6,7,8-hi]indole-8-carboxylic acid (Enantiomer 2)] | > 20 µM | > 33 µM | 1.4e-05 M | 1.7e-05 M | > 3.3e-05 M
Cc1c2c(nn1C)CN(C1CC1)S(=O)(=O)CCCn1c(C(=O)O)c(CCCOc3cccc4cc(F)ccc34)c3ccc(Cl)c-2c31 (single isomer, unassigned; enantiomer 2) [Example 43, (+)-4-chloro-14-cyclopropyl-7-{3-[(6-fluoro-1-naphthyl)oxy]propyl}-2,3-dimethyl-11,12,14,15-tetrahydro-2H,10H-pyrazolo[3′,4′:4,5][1,2,8]thiadiazacycloundecino[6,7,8-hi]indole-8-carboxylic acid 13,13-dioxide N-diethylamine salt (Enantiomer 2)] | > 20 µM | 9.4 µM | 7e-06 M | 9.6e-06 M | 1.3e-05 M

Continued, in another order:

IC50 (BCL-2) | EC50 (SUDHL10 [1]) | IC50 (SUDHL5 [2]) | SMILES | IC50 (SUDHL5 [3]) | IC50 (SUDHL10 [4])
> 20 µM | 22 µM | 7.8e-06 M | Cc1c2c(nn1C)CN(C)S(=O)(=O)CCCn1c(C(=O)O)c(CCCOc3cccc4cc(F)ccc34)c3ccc(F)c-2c31 (single isomer, unassigned; enantiomer 1) [Example 38, (−)-4-fluoro-7-{3-[(6-fluoronaphthalen-1-yl)oxy]propyl}-2,3,14-trimethyl-13,13-dioxo-10,11,12,13,14,15-hexahydro-2H-13lambda^6-pyrazolo[3′,4′:4,5][1,2,8]thiadiazacycloundecino-[6,7,8-hi]indole-8-carboxylic acid (Enantiomer 1)] | 1.7e-05 M | 2.1e-05 M
> 20 µM | 23 µM | 1.7e-05 M | Cc1c2c(nn1C)C(CCN1CCOCC1)N(C)S(=O)(=O)CCCn1c(C(=O)O)c(CCCOc3cccc4ccccc34)c3cccc-2c31 (single isomer, unassigned; enantiomer 1) [Example 45, 2,3,14-trimethyl-15-[2-(morpholin-4-yl)ethyl]-7-{3-[(naphthalen-1-yl)oxy]propyl}-13,13-dioxo-10,11,12,13,14,15-hexahydro-2H-13lambda^6-pyrazolo[3′,4′:4,5][1,2,8]thiadiazacycloundecino[6,7,8-hi]indole-8-carboxylic acid N-ethylethanamine Salt (Enantiomer 1)] | 2e-05 M | 1.7e-05 M
> 20 µM | 0.49 µM | 4.1e-07 M | Cc1c2c(nn1C)CNS(=O)(=O)CCCn1c(C(=O)O)c(CCCOc3cccc4cc(F)ccc34)c3ccc(Cl)c-2c31 (single isomer, unassigned; enantiomer 1) [Example 51, 4-chloro-7-{3-[(6-fluoronaphthalen-1-yl)oxy]propyl}-2,3-dimethyl-13,13-dioxo-10,11,12,13,14,15-hexahydro-2H-13lambda^6-pyrazolo[3′,4′:4,5][1,2,8]thiadiazacycloundecino[6,7,8-hi]indole-8-carboxylic acid (Enantiomer 1)] | 5e-07 M | 9.8e-07 M
12 µM | 0.11 µM | 5.8e-08 M | CCc1c2c(nn1C)CN(CC)S(=O)(=O)CCCn1c(C(=O)O)c(CCCOc3cccc4cc(F)ccc34)c3ccc(Cl)c-2c31 (single isomer, unassigned; enantiomer 1) [Example 57, (+)-4-chloro-3,14-diethyl-7-{3-[(6-fluoronaphthalen-1-yl)oxy]propyl}-2-methyl-13,13-dioxo-10,11,12,13,14,15-hexahydro-2H-13lambda^6-pyrazolo[3′,4′:4,5][1,2,8]thiadiazacycloundecino[6,7,8-hi]indole-8-carboxylic acid N-ethylethanamine Salt (Enantiomer 1)] | 1.1e-07 M | 1.4e-07 M
16 µM | 0.024 µM | 3.9e-08 M | CCc1c2c(nn1C)C(CCC1CCOCC1)N(C)S(=O)(=O)CCCn1c(C(=O)O)c(CCCOc3cccc4cc(F)ccc34)c3ccc(Cl)c-2c31 (single isomer, unassigned; enantiomer 1) [Example 61, (+)-4-chloro-3-ethyl-7-{3-[(6-fluoronaphthalen-1-yl)oxy]propyl}-2,14-dimethyl-15-[2-(oxan-4-yl)ethyl]-13,13-dioxo-10,11,12,13,14,15-hexahydro-2H-13lambda^6-pyrazolo[3′,4′:4,5][1,2,8]thiadiazacycloundecino[6,7,8-hi]indole-8-carboxylic acid (Enantiomer 1)] | 2.8e-08 M | 4.9e-08 M
> 20 µM | 6 µM | 4e-06 M | Cc1c2c(nn1C)C(CCN1CCOCC1)N(C)S(=O)(=O)CCCn1c(C(=O)O)c(CCCOc3cccc4cc(F)ccc34)c3ccc(Cl)c-2c31 (single isomer, unassigned; enantiomer 1) [Example 66, 4-chloro-7-{3-[(6-fluoronaphthalen-1-yl)oxy]propyl}-2,3,14-trimethyl-15-[2-(morpholin-4-yl)ethyl]-13,13-dioxo-10,11,12,13,14,15-hexahydro-2H-13lambda^6-pyrazolo[3′,4′:4,5][1,2,8]thiadiazacycloundecino[6,7,8-hi]indole-8-carboxylic acid (Enantiomer 1)] | 3.3e-06 M | 8.5e-06 M
20 µM | 12 µM | 2.2e-06 M | CCc1c2c(nn1C)CN(C)S(=O)(=O)CCCn1c(C(=O)O)c(CCCOc3cccc4cc(F)ccc34)c3ccc(Cl)c-2c31 (single isomer, unassigned; enantiomer 2) [Example 37, (−)-4-chloro-3-ethyl-7-{3-[(6-fluoronaphthalen-1-yl)oxy]propyl}-2,14-dimethyl-13,13-dioxo-10,11,12,13,14,15-hexahydro-2H-13lambda^6-pyrazolo[3′,4′:4,5][1,2,8]thiadiazacycloundecino-[6,7,8-hi]indole-8-carboxylic acid (Enantiomer 2)] | 5.7e-06 M | 9e-06 M
> 20 µM | 0.73 µM | 5.4e-07 M | Cc1c2c(nn1C)CN(C)S(=O)(=O)CCCn1c(C(=O)O)c(CCCOc3cccc4cc(F)ccc34)c3ccc(F)c-2c31 (single isomer, unassigned; enantiomer 2) [Example 39, (+)-4-fluoro-7-{3-[(6-fluoronaphthalen-1-yl)oxy]propyl}-2,3,14-trimethyl-13,13-dioxo-10,11,12,13,14,15-hexahydro-2H-13lambda^6-pyrazolo[3′,4′:4,5][1,2,8]thiadiazacycloundecino-[6,7,8-hi]indole-8-carboxylic acid (Enantiomer 2)] | 4.5e-07 M | 6.7e-07 M
